Measurements reported in article PMC11788587, “Validating Low‐Dose Iohexol as a Marker for Glomerular Filtration Rate by In Vitro and In Vivo Studies” (Clinical and Translational Science, 2025).

Experiments:
[1] = Clinical trial in healthy volunteers, adverse events; assay type: in vivo, human; conditions: 12 healthy subjects, single i.v. doses 259 mg and 3235 mg
Protocol: The trial had two separate objectives, that is, (i) to assess dose linearity of iohexol pharmacokinetics for a lower dose (reported here) and (ii) to improve the assessment of creatinine volume of distribution by oral administration of creatinine in beef meat (will be reported separately). Building on the PK findings from a 3235 mg iohexol injection, we determined that the current quantification method is sufficiently sensitive to measure iohexol plasma concentrations corresponding to doses over 10 times lower, up to at least 20 h postadministration. Therefore, a 259 mg iohexol dose was selected for this study. […] Each participant was randomly assigned to one of six sequences, receiving iohexol intravenously at different single doses on separate occasions: (1) 259 mg iohexol without beef ingestion (defined as “fasting,” “test”); (2) 3235 mg iohexol fasting (“reference”); and (3) 3235 mg iohexol with beef ingestion (not reported here). The washout interval between administrations was 7 to 14 days. Adverse events were surveyed until the completion of the study.
Adverse events were monitored at multiple time points: within 1 hour before the administration of iohexol, and then at 10 minutes, 30 minutes, 1 hour, and 2 hours post-dose, as well as at the end of hospitalization for each period and during the end-of-study evaluation. Vital signs were recorded at the same time points as adverse events. Overall health was reassessed at the end of the study.

[2] = tested on: human Phase I or Phase II enzymes; design: method as in PMID 32948918; conditions: cited from earlier work
OCT2 = tested on: OCT2; design: method as in ref 15 Yang et al.; conditions: HK‐2 cells; ref 15 Yang et al.; cited from earlier work
hOATP1B1 = molecular target: T1, hOATP1B1 (Homo sapiens, UniProt Q9Y6L6); experiment: Inhibition of hOATP1B1-mediated 3H-estrone sulfate uptake, stably transfected 293 cells; assay type: cell-based; conditions: substrate 0.01 μM 3H-estrone sulfate, median (95% CI)
T1 construct: expressed in transfected cells; host or cells: 293 cells (control: empty vector)
T1 sequence (Q9Y6L6 1-691): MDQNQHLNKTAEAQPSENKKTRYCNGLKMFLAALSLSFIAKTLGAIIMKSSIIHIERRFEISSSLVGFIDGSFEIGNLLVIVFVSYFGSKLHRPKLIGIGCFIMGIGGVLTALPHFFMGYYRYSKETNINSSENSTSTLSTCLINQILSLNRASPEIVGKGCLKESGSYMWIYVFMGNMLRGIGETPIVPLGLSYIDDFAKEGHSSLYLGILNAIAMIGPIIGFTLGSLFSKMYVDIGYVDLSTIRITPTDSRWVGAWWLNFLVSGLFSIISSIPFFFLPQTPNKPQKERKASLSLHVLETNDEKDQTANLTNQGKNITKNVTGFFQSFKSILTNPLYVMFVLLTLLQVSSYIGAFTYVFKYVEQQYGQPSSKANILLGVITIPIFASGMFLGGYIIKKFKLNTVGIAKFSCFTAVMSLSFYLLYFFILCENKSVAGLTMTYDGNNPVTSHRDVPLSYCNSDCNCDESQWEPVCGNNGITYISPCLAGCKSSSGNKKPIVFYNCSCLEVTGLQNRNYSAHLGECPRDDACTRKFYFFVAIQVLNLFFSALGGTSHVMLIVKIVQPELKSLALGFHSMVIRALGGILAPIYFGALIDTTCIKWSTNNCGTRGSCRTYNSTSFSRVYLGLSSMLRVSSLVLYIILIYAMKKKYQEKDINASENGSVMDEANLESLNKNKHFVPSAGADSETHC
Source text: We characterized the inhibitory potential of iohexol on major drug transporters recommended by regulatory agencies, which were previously assessed in a clinical transporter phenotyping cocktail study. These transporters include hOAT1, hOAT3, hOCT1, hOCT2, hMATE1, hMATE2K, human organic anion transporter polypeptides (hOATP)1B1, hOATP1B3, and human multidrug resistance protein (hMDR)1. Additionally, we investigated whether iohexol is a substrate for any of the renal transporters among these, including hOAT1/3, hOCT1/2, and hMATE1/2K. Cell‐based uptake assays were used to assess the activities of hOAT1/3, hOCT1/2, hMATE1/2K, and hOATP1B1/1B3. Inside‐out membrane vesicle uptake assays were used to evaluate the activity of hMDR1.
To determine the maximal inhibitory potential of iohexol, intracellular accumulation of a standard substrate was measured with and without the clinically relevant highest concentrations of iohexol. Control inhibitors were tested in each experiment.
In all subsequent in vitro studies, control experiments were conducted to validate the results. […] Each condition, including cells or vesicles with the transporter and their respective controls, was analyzed in at least three replicates. […]
Uptake assays were carried out with stably transfected 293 cells expressing hOATP1B1 or hOATP1B3, as well as cells containing an empty vector, using the method described by Hsin CH, et al..^1 For the inhibition assays, cells were incubated with the radiolabeled standard substrates specific to each transporter: 0.01 μM ^3H-estrone sulfate for hOATP1B1, and 0.02 μM ^3H-bromosulphophthalein (BSP) for hOATP1B3. […] The accumulation of radio-labelled probe substrates (^3H) in the cell lysate is determined using a Tri-Carb 2810 liquid scintillation counter (PerkinElmer, Waltham, MA, USA) as described previously.^1 Cellular protein amount was determined in parallel from 6 paired wells per cell line and experimental day, using the Bradford method.^2 The 1X lysis buffer (5X lysis buffer from Promega, diluted 1+4 [v/v] in ddH2O) was used as the lysis buffer. […]

Compound: CC(=O)N(CC(O)CO)c1c(I)c(C(=O)NCC(O)CO)c(I)c(C(=O)NCC(O)CO)c1I (centres unmarked) [iohexol]
- Adverse events related to iohexol [1]: None of these were related to iohexol
- Number of adverse events reported [1]: 9
- Subjects reporting adverse events [1]: 7 of 12
- Inhibition of human Phase I or Phase II enzymes [2]: does not inhibit
- Expression of OCT2 (OCT2): downregulated
- Inhibitory effect (% reduction of specific activity) (hOATP1B1; 20 mM iohexol): no notable inhibitory effects
- inhibition at 1 min, 2 mM (hOATP1B1; human, stably transfected 293 cells expressing hOATP1B1, probe 3H-estrone sulfate, 2 mM iohexol, read-out: Inhibitory effect (% reduction of specific activity)): -6.9%
- inhibition at 1 min, 20 mM (hOATP1B1; human, stably transfected 293 cells expressing hOATP1B1, probe 3H-estrone sulfate, 20 mM iohexol, read-out: Inhibitory effect (% reduction of specific activity)): 5.5%
